Entries after “also recorded” stand apart in the source; their conditions may differ. Ends that are not written are not given here. Peptide text beside a SMILES is read from it.
Tests used:
DJA2 [1] = target: T1, DJA2 (Homo sapiens, UniProt O60884); test: ELISA binding of DJA2 to immobilized biotinylated CFTR peptides; settings: for binding in peptide library screen, DJA2 (in words): 2 μM DJA2, absence of ATP, immobilized 15-mer, n ≥ 3
T1 construct: made in house
Procedure: (§1) HSC70, DJA1 and DJA2 were purified as His-tagged proteins, as described. HSC70 was also amplified by PCR with an N-terminal FLAG tag, inserted into pPROEXHTa (Invitrogen) and purified as described. HSC70 was stored in 100 mM KOAc, 20 mM HEPES-KOH pH 7.5, 5 mM MgOAC2 (buffer G), DJA1 and DJA2 in 500 mM NaCl, 20 mM HEPES-KOH pH 7.5, 5 mM MgOAC2 (buffer H). Avi-tagged CFTR NBD1 was purified as described.
(§2) The CFTR peptide library was designed as 15-mers with 10-residue overlaps covering the cytosolic sequences as in Fig. 1a and Supplemental Table S1. Synthetic peptides (Mimotopes, PepSet purity) contained an N-terminal biotin followed by linker sequence GSGS and the 15-mer sequence. […] Peptides were reconstituted in DMSO or water.
(§3) For peptide binding, streptavidin-coated black 96-well plates (Nunc Maxisorp, ThermoFisher) were pre-rinsed with PBS containing 0.05% Tween-20 (PBST), and 5 µM biotinylated peptides in 100 µl PBS were bound overnnight at 4 °C with agitation. Plates were washed with PBST and blocked with PBST containing 0.5% bovine serum albumin (BSA) for 1 h. After removal of blocking solution, 100 µl reactions containing chaperones at indicated concentrations were bound for 45 min at room temperature with agitation. HSC70 reactions were in buffer G containing 1 mM ATP, DJA1 and DJA2 reactions were in buffer H. For competition assays, chaperones and peptides were mixed at indicated concentrations immediately before the reactions were added to the plates. For detections, the plates were washed in PBST and 5 μM His-Probe-HRP conjugate (ThermoFisher) in 100 μL PBST added for 15 min with agitation. After washing in PBST, plates were developed using Amplex Red (ThermoFisher) according to manufacturer’s instructions, in a fluorescence plate reader (Tecan M1000).
(§4) Affinities were determined separately from binding curves and from competition curves. Data from binding of chaperones to immobilized peptides (Fig. 2a,b and Supplemental Fig. S2a–c) were fit to the equation 1/(1 − i) = (C/i)/Kd^B − b, where i is the relative saturation, C is the chaperone concentration (1 μM), Kd^B is the apparent dissociation constant from the binding data. In the plot of 1/(1 − i) against (C/i), the slope is 1/Kd^B, and −b is the intercept. […] In the plot of bi + (C/Kd^B)/i over D, the slope is 1/Kd^C, and e is the intercept. The amount of chaperone bound in the absence of competitor was set as i = 1.
(§5) Established statistical methods[71]–[73] were used to analyze the data for chaperone binding to the peptide library. First, biological and statistical outliers were identified with the Tukey method in two rounds, for biological and then statistical outliers. […] Binding data were represented as multiples of the standard deviations from the normal means. Binding in the presence of competitor peptides were shown as a fraction of binding in the absence of competitor, or the fraction competed calculated as 1 – fraction bound. Values were compared using a two-tailed unpaired Student’s t-test assuming unequal variance.

HSC70 [2] = target: T2, HSC70 (Homo sapiens, UniProt P11142); test: ELISA binding of HSC70 to immobilized biotinylated CFTR peptides; settings: for binding in peptide library screen, HSC70 (in words): 2 μM HSC70, with ATP, immobilized 15-mer, n ≥ 3
T2 construct: made in house
T2 sequence (P11142 whole entry): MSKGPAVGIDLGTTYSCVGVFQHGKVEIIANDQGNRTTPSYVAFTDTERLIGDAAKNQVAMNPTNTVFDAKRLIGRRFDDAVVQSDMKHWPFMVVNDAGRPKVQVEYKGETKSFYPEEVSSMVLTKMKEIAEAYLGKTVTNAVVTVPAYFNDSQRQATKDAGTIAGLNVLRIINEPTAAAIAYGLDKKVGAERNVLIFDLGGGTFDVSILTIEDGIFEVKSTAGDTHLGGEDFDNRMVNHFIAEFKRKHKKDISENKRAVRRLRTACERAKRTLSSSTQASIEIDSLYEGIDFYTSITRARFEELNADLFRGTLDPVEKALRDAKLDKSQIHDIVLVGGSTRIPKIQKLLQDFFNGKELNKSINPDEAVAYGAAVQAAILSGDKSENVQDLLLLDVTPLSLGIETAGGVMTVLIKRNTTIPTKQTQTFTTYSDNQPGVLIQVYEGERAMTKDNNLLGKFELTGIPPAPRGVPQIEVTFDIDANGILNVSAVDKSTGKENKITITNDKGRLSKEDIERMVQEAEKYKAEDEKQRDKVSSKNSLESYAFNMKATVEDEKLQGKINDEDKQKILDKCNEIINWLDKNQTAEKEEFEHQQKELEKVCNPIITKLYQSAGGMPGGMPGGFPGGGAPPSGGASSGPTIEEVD
Procedure: as §1, §2, §3, §4, §5

HSC70 [3] = target: T2, HSC70; test: Competition ELISA: soluble peptide vs HSC70 binding to immobilized 1097-L; settings: for competition of HSC70 binding to immobilized 1097-L (in words): 1 μM HSC70, soluble peptide up to 100 μM; for HSC70 binding site by competition screen (in words): 1 μM HSC70, 100 μM soluble peptide, Fig. 3c/5, cutoff twice SD of 733-L, n ≥ 4; for Kd: read-out: Kd from competition curves, HSC70
Procedure: as §1, §2, §3, §4, §5

DJA1 [4] = target: T3, DJA1 (Homo sapiens, UniProt P31689); test: Competition ELISA: soluble peptide vs DJA1 binding to immobilized 1097-L; settings: for competition of DJA1 binding to immobilized 1097-L (in words): 1 μM DJA1, soluble peptide up to 100 μM; for DJA1 binding site by competition screen (in words): 1 μM DJA1, 100 μM soluble peptide, Fig. 3c/5, cutoff twice SD of 733-L, n ≥ 4
T3 construct: made in house
Procedure: as §1, §2, §3, §4, §5

DJA1 [5] = target: T3, DJA1; test: ELISA binding of DJA1 to immobilized biotinylated CFTR peptides; settings: for binding in peptide library screen, DJA1 (in words): 2 μM DJA1, absence of ATP, immobilized 15-mer, n ≥ 3
Procedure: as §1, §2, §3, §4, §5

DJA2 [6] = target: T1, DJA2; test: Competition ELISA: soluble peptide vs DJA2 binding to immobilized 1097-L; settings: for competition of DJA2 binding to immobilized 1097-L (in words): 1 μM DJA2, soluble peptide up to 100 μM; for DJA2 binding site by competition screen (in words): 1 μM DJA2, 100 μM soluble peptide, Fig. 3c/5, cutoff twice SD of 733-L, n ≥ 4
Procedure: as §1, §2, §3, §4, §5

HSC70 and DJA2 = test: Refolding of guanidine denatured luciferase by HSC70 and DJA2; assay type: biochemical; settings: 4 μM each HSC70 and DJA2, 100 nM luciferase, 100 μM peptide (25-fold excess), 60 min, % of control without peptide; n = 3
Procedure: Refolding of guanidine denatured luciferase with HSC70 and DJA2 was as described. […] To monitor refolding, luciferase activity was measured in a luminometer (Berthold Sirius) with the luciferase assay kit (Promega). For co-IPs, 20 μL reaction aliquots were stopped by dilution at 4 °C to 500 μL with buffer containing 0.1% Triton X-100, 0.2% BSA and 0.04 mg/mL apyrase (Sigma). Reactions were incubated with FLAG-M2 magnetic beads (Sigma) for 1 h at 4 °C with agitation, then beads were isolated and washed with buffer G containing 0.1% Triton X-100, and eluted with 40 μL of 1 μg/mL FLAG peptide in the same buffer. Samples were analyzed on Western blots detected with antibodies against luciferase (Sigma, L2164) and the FLAG-M2 tag (Sigma, F1804).

HSC70 [7] = target: T2, HSC70; test: ELISA binding of HSC70 to immobilized CFTR NBD1 and competition by soluble peptides; settings: 1 μM HSC70, with ATP, soluble peptide, Fig. 4a; n = 5
Procedure: as §1
For NBD1 binding, 100 nM of strep-tagged NBD1 in 100 µl of 150 mM NaCl, 50 mM Na2HPO4 pH 7.5, 1 mM ATP, and 40 µM DTT (buffer N), was bound to streptavidin plates for 1 hour at 4 °C with agitation. Plates were washed with PBST and incubated in buffer N at 30 °C in a water bath for 5 min. Then, plates were blocked in PBST containing 0.5% BSA, followed by the addition of HSC70 binding reactions, and detection as above.

T1 sequence (O60884 whole entry): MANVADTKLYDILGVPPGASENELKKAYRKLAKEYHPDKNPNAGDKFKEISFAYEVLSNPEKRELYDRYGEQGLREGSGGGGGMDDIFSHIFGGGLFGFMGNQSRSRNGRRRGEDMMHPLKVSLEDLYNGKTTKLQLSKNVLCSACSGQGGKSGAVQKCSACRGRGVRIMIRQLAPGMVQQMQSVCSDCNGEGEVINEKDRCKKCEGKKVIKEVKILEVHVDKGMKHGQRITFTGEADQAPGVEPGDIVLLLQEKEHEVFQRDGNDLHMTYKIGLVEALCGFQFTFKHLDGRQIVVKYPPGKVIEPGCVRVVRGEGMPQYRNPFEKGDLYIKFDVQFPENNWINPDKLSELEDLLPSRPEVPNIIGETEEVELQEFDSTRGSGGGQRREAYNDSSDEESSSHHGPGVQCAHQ

Compound | binding in peptide library screen, DJA2 (in words) (DJA2 [1]) | binding in peptide library screen, HSC70 (in words) (HSC70 [2]) | competition of HSC70 binding to immobilized 1097-L (in words) (HSC70 [3]) | competition of DJA1 binding to immobilized 1097-L (in words) (DJA1 [4]) | binding in peptide library screen, DJA1 (in words) (DJA1 [5]) | competition of DJA2 binding to immobilized 1097-L (in words) (DJA2 [6]) | effect on luciferase refolding (in words) (HSC70 and DJA2) | HSC70 binding site by competition screen (in words) (HSC70 [3]) | DJA1 binding site by competition screen (in words) (DJA1 [4]) | DJA2 binding site by competition screen (in words) (DJA2 [6]) | competition of HSC70 binding to immobilized NBD1 (in words) (HSC70 [7]) | Kd (HSC70 [3]) [nM] | also measured
493-L: NBD1 15-mer 486-500 (GRISFCSQFSWIMPG; UniProt P13569 486-500, looked up, fragment) [Peptide 493-L] | binding by DJA1, HSC70 and DJA2, in the original screen | binding by DJA1, HSC70 and DJA2, in the original screen | competed poorly | competed poorly | binding by DJA1, HSC70 and DJA2, in the original screen | competed poorly | – | – | – | – | – | – | –
CC[C@H](C)[C@H](NC(=O)[C@@H](NC(=O)[C@@H](NC(=O)[C@H](CS)NC(=O)[C@@H](N)CC(=O)O)[C@@H](C)O)C(C)C)C(=O)N[C@@H](CC(C)C)C(=O)N[C@@H](CS)C(=O)N[C@@H](CCC(=O)O)C(=O)N[C@@H](Cc1c[nH]cn1)C(=O)O [Peptide 1398-S] (H-DCTVILCEH-OH; N-terminus and C-terminus assumed) | – | – | competed | competed | – | competed | inhibited refolding | bound by HSC70, DJA2 and DJA1 | bound by HSC70, DJA2 and DJA1 | bound by HSC70, DJA2 and DJA1 | effective competitors | – | –
DKILILHEG [Peptide 618-S] | – | – | competed HSC70 well | – | – | – | partial but still significant | bound by HSC70, DJA2 and DJA1 | bound by HSC70, DJA2 and DJA1 | bound by HSC70, DJA2 and DJA1 | competed the majority of HSC70 | – | –
FLYLSTLRWFQMRIE [Peptide 1097-L] | most consistently bound by all three chaperones | most consistently bound by all three chaperones | Strong, essentially saturating competition | similarly competed | most consistently bound by all three chaperones | similarly competed | blocked refolding entirely | – | – | – | – | 602 | titration binding / saturation, DJA2 (in words) (DJA2 [1]; DJA2 titrated to 1.5 μM on immobilized peptide, Fig. 2b, S2c, n = 3): at or close to saturation above 1 μM; also recorded: higher than to the other peptides; Kd (DJA2 [1]; immobilized peptide (biotin-GSGS-15-mer), DJA2 titrated in buffer H pH 7.5, no nucleotide, 45 min, room temperature, n = 3, read-out: Kd from binding curves, DJA2): 75 nM; HSC70 binding in ATP compared with ADP or no nucleotide (HSC70 [2]; 1 μM HSC70, immobilized 1097-L, Fig. S1a, n ≥ 4): somewhat lower than in ADP or the absence of nucleotide; titration binding / saturation, HSC70 (in words) (HSC70 [2]; HSC70 titrated to 1.5 μM on immobilized peptide, Fig. 2a, S2a, n ≥ 6): higher than to the other peptides; Kd (HSC70 [2]; immobilized peptide (biotin-GSGS-15-mer), HSC70 titrated in buffer G pH 7.5 + 1 mM ATP, 45 min, room temperature, n ≥ 6, read-out: Kd from binding curves, HSC70): 58 nM; HSC70 concentration at which binding reached saturation (HSC70 [2]; titration on immobilized peptide, Fig. 2a, n ≥ 6): around 1 μM; Kd (DJA1 [4]; read-out: Kd from competition curves, DJA1): 2430 nM; titration binding / saturation, DJA1 (in words) (DJA1 [5]; DJA1 titrated to 1.5 μM on immobilized peptide, Fig. 2b, S2b, n = 3): at or close to saturation above 1 μM; also recorded: higher than to the other peptides; Kd (DJA1 [5]; immobilized peptide (biotin-GSGS-15-mer), DJA1 titrated in buffer H pH 7.5, no nucleotide, 45 min, room temperature, n = 3, read-out: Kd from binding curves, DJA1): 167 nM; Kd (DJA2 [6]; read-out: Kd from competition curves, DJA2): 585 nM
QKVFIFSGTF [Peptide 1295-S] | – | – | competed | – | – | – | partial but still significant | HSC70-DJA2 sites | – | HSC70-DJA2 sites | effective competitors | 1260 | –
TSLLMVIMG [Peptide 469-S] | – | – | competed HSC70 well | – | – | competed | inhibited refolding | HSC70-DJA2 sites | – | HSC70-DJA2 sites | competed the majority of HSC70 | – | –
